{"source": "patent US20220370464A1", "about": "“COMPOSITIONS AND METHODS OF TREATING OR PREVENTING OCULAR INFECTIONS WITH FILOCICLOVIR” (Microbiotix, Inc., priority 2019, published 2022)", "key": {"AdV7": {"system": "AdV7", "assay": "CPE reduction assay, adenovirus 7", "assay_type": "cell-based", "protocol": "Similar experiments were carried out with filociclovir against adenovirus 6, adenovirus 7, and adenovirus 8."}, "EBV": {"system": "EBV", "conditions": "γ Herpesvirus, cited from earlier work"}, "HHV-8": {"system": "HHV-8", "conditions": "γ Herpesvirus, cited from earlier work"}, "VZV": {"system": "VZV", "conditions": "α Herpesvirus, cited from earlier work"}, "Adenovirus 5 (AdV5)": {"system": "Adenovirus 5 (AdV5)", "conditions": "AdV 5‡, summary table; cited from earlier work"}}, "note": "Like-named read-outs stand apart in the source and are kept apart here.", "data": [{"smiles": "Nc1nc2c(ncn2/C=C2/CC2(CO)CO)c(=O)[nH]1", "note": "[Filociclovir, 2-amino-9-{(Z)-[2,2-bis(hydroxymethyl)cyclopropylidene]methyl}-3,9-dihydro-6H-purin-6-one]", "values": [{"measurement": "CC50/EC50", "setting": "AdV7", "value": ">144"}, {"measurement": "EC50", "setting": "EBV; listed as filociclovir", "value": "≤ 10000", "unit": "nM"}, {"measurement": "EC50", "setting": "EBV", "value": "1000 ± 940", "unit": "nM"}, {"measurement": "EC50", "setting": "HHV-8; listed as filociclovir", "value": "≤ 10000", "unit": "nM"}, {"measurement": "EC50", "setting": "HHV-8", "value": "5600 ± 5000", "unit": "nM"}, {"measurement": "EC50", "setting": "VZV; listed as filociclovir", "value": "≤ 10000", "unit": "nM"}, {"measurement": "EC50", "setting": "VZV", "value": "1500 ± 1600", "unit": "nM"}, {"measurement": "EC50", "setting": "Adenovirus 5 (AdV5)", "value": "2200 ± 400", "unit": "nM"}]}]}
